Assay type in all cases: cell-based
One assay deals with human GcgR (Homo sapiens, UniProt P47871). Put plainly: Functional cAMP activity in the presence of 1% HSA. The conditions noted are these: read-out: cAMP Rel EC50, hGcgR.
In assay [1] the target is T1, hGIPR (Homo sapiens, UniProt P48546).
T1 sequence (P48546 22-466): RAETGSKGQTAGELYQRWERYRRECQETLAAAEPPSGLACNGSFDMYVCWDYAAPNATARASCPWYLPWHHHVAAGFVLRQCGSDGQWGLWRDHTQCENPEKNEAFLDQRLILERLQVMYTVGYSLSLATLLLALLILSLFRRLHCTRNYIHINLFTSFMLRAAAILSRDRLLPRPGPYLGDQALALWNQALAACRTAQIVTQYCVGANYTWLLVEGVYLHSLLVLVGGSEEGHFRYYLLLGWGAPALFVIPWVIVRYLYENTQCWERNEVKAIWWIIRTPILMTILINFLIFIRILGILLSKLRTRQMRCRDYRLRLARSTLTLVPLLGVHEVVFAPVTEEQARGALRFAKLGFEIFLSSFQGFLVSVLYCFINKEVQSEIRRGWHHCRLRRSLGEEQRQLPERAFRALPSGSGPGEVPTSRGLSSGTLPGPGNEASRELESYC
Put plainly: Functional cAMP activity in the presence of 1% HSA. The settings on record: read-out: cAMP Rel EC50, hGIPR.

The target of the next assay is hGcgR (Homo sapiens, UniProt P47871). Description: Functional cAMP activation in the presence of 0.1% casein (no HSA). The settings on record: read-out: Relative cAMP EC50, hGcgR.
The target in assay [2] is T2, hGLP-1R (Homo sapiens, UniProt P43220). The assay is described as above. The settings on record: read-out: Relative cAMP EC50, hGLP-1R.
In assay [3] the target is T2, hGLP-1R. Description: Functional cAMP activity in the presence of 1% HSA. The conditions noted are these: read-out: cAMP Rel EC50, hGLP-1R.
For assay [4], the target named is T1, hGIPR. Description: Functional cAMP activation in the presence of 0.1% casein (no HSA). The settings on record: read-out: Relative cAMP EC50, hGIPR.
Setting [5] is: HEK-293 clonal cell line, 1% HSA, geometric mean of relative EC50.
Where [6] appears, read: in the presence of 0.1% casein (no HSA), geometric mean of relative EC50.
Where [7] appears, read: in the presence of 0.1% casein (no HSA), geometric mean.
Setting [8] is: 0.1% casein, no HSA, geometric mean.

Where two headings read alike, the source gives them in different places. Starred links: 1 amine or outer side, 2 acyl side, 3 side chain; linkers in the order of their positions; H or OH if unused. Non-standard residues stand in square brackets, D forms with d. Residues, ends and D or L forms follow the SMILES beside them. Groups on a side chain read outwards from the residue. No end group written: not given here. *: point of attachment. C20 diacid = O=C(O)CCCCCCCCCCCCCCCCCCC(=O)*; C18 diacid = O=C(O)CCCCCCCCCCCCCCCCC(=O)*; αMePhe(2-F) = C[C@](N)(Cc1ccccc1F)C(=O)O; γGlu = O=C(O)[C@H](CCC(=O)[*:2])N[*:1]; αMe4Pal = C[C@](N)(Cc1ccncc1)C(=O)O; αMeY = C[C@](N)(Cc1ccc(O)cc1)C(=O)O; 4Pal = N[C@@H](Cc1ccncc1)C(=O)O; αMeL = CC(C)C[C@](C)(N)C(=O)O; αMeS = C[C@](N)(CO)C(=O)O; Orn = NCCC[C@H](N)C(=O)O; AEEA = NCCOCCOCC(=O)O; Aib = CC(C)(N)C(=O)O
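Wherever Relative cAMP EC50, hGIPR is given: intracellular cAMP rise after 30 min at 37 °C read by HTRF against a standard curve, scaled between buffer alone (0%) and top control ligand concentration (100%), four-parameter fit.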
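Wherever Relative cAMP EC50, hGLP-1R is given: intracellular cAMP rise after 30 min at 37 °C read by HTRF, normalized between buffer only (0%) and maximal control ligand (100%), four-parameter variable-slope fit.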
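Wherever Relative cAMP EC50, hGcgR is given: intracellular cAMP rise after 30 min at 37 °C, read by HTRF against a cAMP standard curve, scaled from buffer only (0%) to maximal control ligand response (100%).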

T2 sequence (P43220 24-463): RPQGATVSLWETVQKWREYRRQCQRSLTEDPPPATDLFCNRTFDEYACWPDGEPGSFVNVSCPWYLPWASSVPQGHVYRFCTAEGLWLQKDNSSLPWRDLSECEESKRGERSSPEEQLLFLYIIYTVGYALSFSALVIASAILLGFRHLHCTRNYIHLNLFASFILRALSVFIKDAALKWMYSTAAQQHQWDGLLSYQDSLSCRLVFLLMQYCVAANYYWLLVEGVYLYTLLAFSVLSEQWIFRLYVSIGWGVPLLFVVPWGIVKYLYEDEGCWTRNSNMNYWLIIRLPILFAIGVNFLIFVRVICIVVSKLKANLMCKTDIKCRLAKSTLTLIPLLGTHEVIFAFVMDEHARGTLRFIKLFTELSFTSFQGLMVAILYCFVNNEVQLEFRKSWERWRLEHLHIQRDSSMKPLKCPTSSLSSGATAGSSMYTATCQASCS
Chain of hGcgR (P47871 26-477): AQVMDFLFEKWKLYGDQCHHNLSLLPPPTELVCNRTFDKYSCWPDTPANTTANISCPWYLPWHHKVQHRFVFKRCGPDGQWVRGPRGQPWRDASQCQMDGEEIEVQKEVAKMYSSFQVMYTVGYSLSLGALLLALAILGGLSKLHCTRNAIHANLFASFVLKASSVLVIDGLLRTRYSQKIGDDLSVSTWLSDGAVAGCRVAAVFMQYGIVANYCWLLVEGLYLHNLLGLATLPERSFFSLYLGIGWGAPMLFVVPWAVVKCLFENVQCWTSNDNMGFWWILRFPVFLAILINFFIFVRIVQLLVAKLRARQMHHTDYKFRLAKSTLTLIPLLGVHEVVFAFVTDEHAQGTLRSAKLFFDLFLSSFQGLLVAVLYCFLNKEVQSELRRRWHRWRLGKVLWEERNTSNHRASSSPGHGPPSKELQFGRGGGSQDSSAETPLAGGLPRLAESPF
Chain of human GcgR (P47871 26-477): as above

“H-Y[Aib]QGT[αMePhe(2-F)]TSDYSI[αMeL]LDKK([AEEA-γGlu-C18 diacid])AQ[Aib]AFIEYLLETGPSSGAPPPSEG-NH2 [Example 417]”: the half-maximal effective concentration (EC50) on human GcgR (setting [5]) came to 386 nM; at hGIPR [1] (setting [5]), 4.46 nM; at hGcgR (setting [6]), 2.83 nM; on hGLP-1R [2] (setting [6]) it was 0.328 nM; at hGLP-1R [3] (setting [5]) it was 67 nM; on hGIPR [4] (setting [6]), 0.0144 nM.

As to “H-Y[Aib]QGT[αMePhe(2-F)]TSD[4Pal][αMeS]I[αMeL]LD[Orn]K([AEEA-γGlu-C18 diacid])AQ[αMe4Pal]EFI[dE][αMeY]LVEGGPSSGEPPPESE-NH2 [Example 1157]”, the 50% effective concentration (EC50) at human GcgR stood at 384 nM; at hGIPR [1] it was 1.28 nM; on hGcgR (setting [7]) it was 2.04 nM; on hGLP-1R [2] (setting [7]), 0.408 nM; on hGLP-1R [3] it was 57.5 nM; at hGIPR [4] (setting [7]), 0.0124 nM.

On to “H-Y[Aib]QGTFTSD[4Pal][αMeS]I[αMeL]LD[Orn]K([dE-γGlu-C18 diacid])AQ[αMe4Pal]QFIQ[αMeY]LIE[Aib]GPSSGAPPPSGGGE-NH2 [Example 1136]”, for which the EC50 at human GcgR is 121 nM; on hGIPR [1] it was 0.949 nM; on hGcgR (setting [7]), 1.26 nM; at hGLP-1R [2] (setting [7]), 0.453 nM; on hGLP-1R [3], 39.2 nM; at hGIPR [4] (setting [7]) it was 0.0131 nM.

Consider “Y[Aib]QGT[αMePhe(2-F)]TSDYSKILDKIAQK([AEEA-γGlu-C20 diacid])AFIQYLIEGGPSSGEPPPSEG-NH2 [Example 354]”, for which the half-maximal effective concentration (EC50) was determined as 1440 nM at human GcgR; 23.8 nM on hGIPR [1]; 7.91 nM on hGcgR (setting [7]); 1.21 nM on hGLP-1R [2] (setting [7]); 175 nM at hGLP-1R [3]; 0.134 nM at hGIPR [4] (setting [7]).

On to `CC[C@H](C)[C@H](NC(=O)[C@H](Cc1ccccc1)NC(=O)[C@H](C)NC(=O)C(C)(C)NC(=O)[C@H](CCC(N)=O)NC(=O)[C@H](C)NC(=O)[C@H](CCCCNC(=O)COCCOCCNC(=O)CC[C@H](NC(=O)CCCCCCCCCCCCCCCCC(=O)O)C(=O)O)NC(=O)[C@H](CCCN)NC(=O)[C@H](CC(=O)O)NC(=O)[C@H](CC(C)C)NC(=O)[C@](C)(CC(C)C)NC(=O)[C@@H](NC(=O)[C@](C)(CO)NC(=O)[C@H](Cc1ccncc1)NC(=O)[C@H](CC(=O)O)NC(=O)[C@H](CO)NC(=O)[C@@H](NC(=O)[C@](C)(Cc1ccccc1F)NC(=O)[C@@H](NC(=O)CNC(=O)[C@H](CCC(N)=O)NC(=O)C(C)(C)NC(=O)[C@@H](N)Cc1c[nH]cn1)[C@@H](C)O)[C@@H](C)O)[C@@H](C)CC)C(=O)N[C@H](CCC(=O)O)C(=O)N[C@@H](Cc1ccc(O)cc1)C(=O)N[C@@H](CC(C)C)C(=O)N[C@@H](CC(C)C)C(=O)N[C@@H](CCC(=O)O)C(=O)NCC(=O)NCC(=O)N1CCC[C@H]1C(=O)N[C@@H](CO)C(=O)N[C@@H](CO)C(=O)NCC(=O)N[C@@H](CCC(=O)O)C(=O)N1CCC[C@H]1C(=O)N[C@@H](CCC(=O)O)C(=O)N1CCC[C@H]1C(=O)N[C@@H](CCC(=O)O)C(N)=O` [Example 479] (H-H[Aib]QGT[αMePhe(2-F)]TSD[4Pal][αMeS]I[αMeL]LD[Orn]K([AEEA-γGlu-C18 diacid])AQ[Aib]AFI[dE]YLLEGGPSSGEPEPE-NH2), for which the EC50 amounted to 432 nM on human GcgR; 7.11 nM on hGIPR [1]; 5.98 nM on hGcgR; 0.314 nM on hGLP-1R [2]; 23.5 nM at hGLP-1R [3]; 0.0905 nM on hGIPR [4].

For the molecule “H-Y[Aib]QGTFTSDFS[Orn][αMeL]LDKK([AEEA-γGlu-C20 diacid])AQ[Aib]AFIEYLLAGGPSSGAPPPSGE-NH2 [Example 82]”, the EC50 on human GcgR worked out at 1070 nM; on hGIPR [1], 87.8 nM; on hGcgR (setting [7]), 6.98 nM; on hGLP-1R [2] (setting [7]), 3.52 nM; at hGLP-1R [3], 394 nM; on hGIPR [4] (setting [7]), 0.302 nM.

“H-Y[Aib]QGTFTSD[4Pal]S[Orn][αMeL]LD[Orn]K([γGlu-γGlu-C18 diacid])AQ[αMe4Pal]AFIEYLLAGGPSSGAPPPSGSEE-NH2 [Example 1068]”: the EC50 on human GcgR was found to be 295 nM; at hGIPR [1], 20.2 nM; at hGcgR (setting [7]) it was 4.8 nM; on hGLP-1R [2] (setting [7]), 11.6 nM; on hGLP-1R [3], 1330 nM; on hGIPR [4] (setting [7]) it was 0.211 nM.

Take “H-Y[Aib]QGT[αMePhe(2-F)]TSD[4Pal][αMeS]I[αMeL]LD[Orn]K([γGlu-γGlu-C18 diacid])AQ[Aib][Orn]FI[dE]YLIEGGPSSGEPPPSGTGE-NH2 [Example 523]”: the EC50 is 234 nM on human GcgR; 0.869 nM on hGIPR [1]; 3.79 nM on hGcgR; 0.482 nM at hGLP-1R [2]; 27.1 nM at hGLP-1R [3]; 0.021 nM on hGIPR [4].

For the molecule “H-Y[Aib]QGT[αMePhe(2-F)]TSD[4Pal][αMeS]I[αMeL]LD[Orn]K([γGlu-γGlu-C18 diacid])AQ[αMe4Pal]EFI[dE][αMeY]LIEGGPSSGAPPPSGGGEE-NH2 [Example 1218]”, the concentration for a half-maximal effect (EC50) at human GcgR was found to be 185 nM; on hGIPR [1] it was 0.626 nM; on hGcgR (setting [8]), 1.88 nM; on hGLP-1R [2] (setting [8]), 0.58 nM; on hGLP-1R [3], 48.7 nM; on hGIPR [4] (setting [8]), 0.00839 nM.

“H-Y[Aib]QGT[αMePhe(2-F)]TSD[4Pal][αMeS]I[αMeL]LD[Orn]K([γGlu-γGlu-C18 diacid])AQ[Aib][Orn]FI[dE][αMeY]LIEGGPSSGEPPPSEG-NH2 [Example 480]”: the EC50 on human GcgR amounted to 65.5 nM; at hGIPR [1], 0.722 nM; at hGcgR, 1.47 nM; at hGLP-1R [2] it was 0.215 nM; at hGLP-1R [3], 8.39 nM; at hGIPR [4], 0.0107 nM.

On to “H-Y[Aib]QGT[αMePhe(2-F)]TSD[4Pal]SILLDKK([AEEA-γGlu-C18 diacid])AQ[Aib]AFIE[αMeY]LEEGGPSSGAPPPSGTGE-NH2 [Example 669]”, for which the EC50 on human GcgR stood at 173 nM; on hGIPR [1] it was 1.41 nM; on hGcgR, 1.76 nM; on hGLP-1R [2], 0.27 nM; on hGLP-1R [3], 27.3 nM; at hGIPR [4], 0.0145 nM.

For “H-Y[Aib]QGTFTSD[4Pal]SR[αMeL]LDKK([AEEA-γGlu-C18 diacid])AQ[Aib]AFIEYLIE[Aib]GPSSGAPPPSGS-NH2 [Example 802]”, the EC50 on human GcgR worked out at 2520 nM; on hGIPR [1], 16.9 nM; on hGcgR (setting [7]) it was 16.6 nM; at hGLP-1R [2] (setting [7]) it was 1.41 nM; on hGLP-1R [3], 153 nM; on hGIPR [4] (setting [7]), 0.124 nM.

`CC[C@H](C)[C@H](NC(=O)[C@H](Cc1ccccc1)NC(=O)[C@H](CC(N)=O)NC(=O)C(C)(C)NC(=O)[C@H](CCC(N)=O)NC(=O)[C@H](C)NC(=O)[C@H](CCCCNC(=O)CC[C@H](NC(=O)CC[C@H](NC(=O)CCCCCCCCCCCCCCCCC(=O)O)C(=O)O)C(=O)O)NC(=O)[C@H](CCCN)NC(=O)[C@H](CC(=O)O)NC(=O)[C@H](CC(C)C)NC(=O)[C@](C)(CC(C)C)NC(=O)[C@@H](NC(=O)[C@](C)(CO)NC(=O)[C@H](Cc1ccncc1)NC(=O)[C@H](CC(=O)O)NC(=O)[C@H](CO)NC(=O)[C@@H](NC(=O)[C@](C)(Cc1ccccc1F)NC(=O)[C@@H](NC(=O)CNC(=O)[C@H](CCC(N)=O)NC(=O)C(C)(C)NC(=O)[C@@H](N)Cc1ccc(O)cc1)[C@@H](C)O)[C@@H](C)O)[C@@H](C)CC)C(=O)N[C@H](CCC(=O)O)C(=O)N[C@@](C)(Cc1ccc(O)cc1)C(=O)N[C@@H](CC(C)C)C(=O)N[C@@H](CCC(N)=O)C(=O)N[C@@H](CCC(=O)O)C(=O)NCC(=O)NCC(=O)N1CCC[C@H]1C(=O)N[C@@H](CO)C(=O)N[C@@H](CO)C(=O)NCC(=O)N[C@@H](CCC(=O)O)C(=O)N1CCC[C@H]1C(=O)N1CCC[C@H]1C(=O)N1CCC[C@H]1C(=O)N[C@@H](CCC(=O)O)C(N)=O` [Example 450] (H-Y[Aib]QGT[αMePhe(2-F)]TSD[4Pal][αMeS]I[αMeL]LD[Orn]K([γGlu-γGlu-C18 diacid])AQ[Aib]NFI[dE][αMeY]LQEGGPSSGEPPPE-NH2): the EC50 on human GcgR was 553 nM; at hGIPR [1] it was 3.75 nM; on hGcgR, 4.84 nM; on hGLP-1R [2], 0.43 nM; at hGLP-1R [3], 18.4 nM; on hGIPR [4] it was 0.0448 nM.

Values taken from patent US20240270821A1, “GIP/GLP1/GCG TRI-RECEPTOR AGONISTS AND USES THEREOF” (priority 2023, published 2024).
